Assay results published in patent publication US9734283B2, “Genomic features associated with epigenetic control regions and transgenerational inheritance of epimutations” (priority 2011, dated 2017).
Entries after “also recorded” stand apart in the source; their conditions may differ.

What was measured:
[1] = Serum hormone levels, F3 generation; format: in vivo, rat; settings: F3 generation males
Protocol: Both female and male rats of F1, F2 and F3 generation at 90-120 days of age were euthanized by CO2 inhalation and cervical dislocation for dissection, collection and examination of tissues including testis, epididymis, and ovary. Body and tissue weights were measured at dissections. Blood samples were collected, allowed to clot, centrifuged and serum samples stored for hormone assays. Tissues were fixed in Bouins solution (Sigma) and 70% ethanol, then processed for paraffin embedding by standard procedures for histopathology examination. Five-micrometer sections were made and were either unstained or stained with H & E stain.

[2] = test system: sperm promoter epigenome (DNA methylation); assay: MeDIP-Chip analysis of F3 generation sperm promoter DNA methylation; format: in vivo, rat; settings: F3 generation sperm vs vehicle control; p<10^-5
Protocol: Sperm heads were separated from tails through sonication following previously described protocol (without protease inhibitors) and then purified using a series of washes and centrifugations from a total of nine F3 generation rats per treatment lineage that were 120 days of age. DNA extraction on the purified sperm heads was performed as previously described. Equal concentrations of DNA from individual sperm samples were then used to produce pools of DNA material. Three DNA pools were produced in total per treatment, which contained the same amount of sperm DNA from three animals. Therefore a total of 45 animals were used for building three DNA pools per treatment for the 4 experimental groups plus controls. These DNA pools were then used for methylated DNA immunoprecipitation (MeDIP). MeDIP was performed as follows: 6 μg of genomic DNA was subjected to series of three 20 pulse sonications at 20% amplitude and the appropriate fragment size ([…]) was verified through 2% agarose gels; the sonicated genomic DNA was resuspended in 350 ul TE and denaturated for 10 min at 95° C. and then immediately placed on ice for 5 min; 100 ul of 5×IP buffer (50 mM Na-phosphate pH7, 700 mM NaCl, 0.25% Triton X-100) was added to the sonicated and denatured DNA. […]

[3] = test system: Harlan Sprague Dawley rats; assay: Onset of puberty in F1-F3 generation after F0 gestational exposure; format: in vivo, rat
Source text: At proestrus as determined by daily vaginal smears, the female rats, (90 days) were pair-mated with male rats (120 days). On the next day, the females were separated and their vaginal smears were examined microscopically and if they were sperm-positive (day 0) the rats were tentatively considered pregnant and then weighed with a digital animal weighing balance to monitor increases in body weight. Vaginal smears were continued for monitoring diestrus status in these rats until day 7. […] These pregnant rats were then given daily intraperitoneal injections of any one of the following single chemicals or mixtures with an equal volume of sesame oil (Sigma) on days E-8 through E-14 of gestation. Treatment groups were Control, Pesticide (Permethrin+DEET), Plastics (Bisphenol-A, DBP and DEHP), Dioxin (TCDD), and Jet Fuel (JP8 hydrocarbon). The pregnant female rats treated with various mixtures were designated as the F0 generation. When there was a drop in the litter size and the sex ratio of pups in F1 generation of Plastics group, another treatment group was included with only half the dose of Bisphenol-A, DBP and DEHP and this group was designated ‘Low Dose Plastics’ group.
The offspring of the F0 generation were the F1 generation. Likewise F2 and F3 generation offspring were generated. These rats were weaned from their mothers at 21 days of age. At weaning, the following weaning traits were measured; litter size, sex ratio, weaning weight (in grams), and anogenital index (AGI). […] Weaning weights of rats were measured by a digital balance. AGI was computed as the AGD in mm (from the bottom of the anal opening to the top of the genital opening) per gram of body weight at weaning. Starting at the age of 30 days for females and 35 days for males, puberty checks were performed. These checks were performed on a daily basis until puberty in each rat was confirmed. Onset of puberty for females was indicated by a clear vaginal opening, and for males it was indicated when the glans penis was able to fully extend free of the preputial fold (balano-preputial separation).

[4] = test system: testicular spermatogenic cells; assay: Testicular spermatogenic cell apoptosis (TUNEL assay), F1-F3 lineage after F0 gestational exposure; format: in vivo, mouse; settings: 129 strain, flutamide 20 mg/kg/day IP to F0 E7-E13; any age or generation analyzed; vs control
Protocol: (§1) The experimental design involved exposing gestating female inbred 129 strain and outbred CD-1 strain mice to daily intraperitoneal (IP) injections of vehicle (DMSO) (control) or vinclozolin at two doses, 100 mg/kg/day (V1) or 200 mg/kg/day (V2), between embryonic day 7-13 of gestation. In addition, a comparison was used with flutamide IP injections at a 20/mg/kg/day dose. The F1 generation males and females from different litters were bred to generate the F2 generation animals and F2 generation males and females from different litters were bred to generate the F3 generation animals, see Methods below. No sibling or cousin breedings occurred to avoid any inbreeding artifacts. Selected F1, F2 and F3 generation animals from postnatal 90 (P90) or 300 (P300) days of age were analyzed for testis, sperm and other pathologies as previously described.^11, 20, 21
Timed pregnant inbred 129 mice were given intraperitoneal injections with vinclozolin (100 mg/kg·day, 99% pure; ChemService, West Chester, Pa.), flutamide (20 mg/kg·day, Sigma, St. Louis, Mo.) or DMSO in sesame oil (vehicle) as controls, while timed pregnant outbred CD-1 mice were given intraperitoneal injections (IP) with vinclozolin doses: 100 mg/kg·day (V1) or 200 mg/kg·day (V2) or DMSO in sesame oil as controls.^21 Mice were given injections from embryonic day (E) E7-E13, with plug date equal to day 0. Controls were injected with vehicle (DMSO) dose and were matched with vinclozolin or flutamide treatment animals within the same mouse strain at the time of injection and were analyzed together throughout all three generations. […] Male mice were collected and analyzed between P60-P90 (P90) for all generations and treatment groups. […]

caudal epididymal sperm = assay: Epididymal sperm motility and concentration analyses; format: in vivo, mouse; settings: primarily in the F1 generation males
Protocol: The sperm motility was determined using caudal epididymal sperm. The epididymis was dissected free of connective tissue and a small cut made to the cauda. The tissue was placed in 2 ml F12 culture medium containing 0.1% BSA for 10 minutes at 37° C. Fifty microliters was placed on a warm slide and gently cover-slipped. The specimen was immediately examined using phase contrast microscopy with 200×magnification. The sperm motility assays examined rapid progressive, slow progressive and non-progressive motility according to WHO category.^51 The ratio of motile sperm to the total number of sperm, including immotile sperm, was calculated. Approximately 50-100 sperm were counted per microscopic field. The procedure was repeated at least twice with a new specimen from the same epididymis. Epididymal sperm count was determined using the same epididymis according to a previously described method with some modifications.^25, 52 Briefly, the epididymis that was placed in the 2 ml of culture medium was minced. The tissue pieces were stored at 4° C. for 48 hours to immobilize the sperm. Three independent sperm samples were counted using a hemocytometer. The counts were averaged and used as a replicate in statistical analysis. The control and vinclozolin generation analysis and the control and flutamide generation analysis for an individual experiment were done at the same time. All analyses were done blinded, such that different individuals were used for collection and counting.

129 and CD-1 mice = assay: Litter size, sex ratio, body and tissue weights (toxicity); format: in vivo, mouse; settings: transient embryonic exposure
Protocol: as §1
Timed pregnant inbred 129 mice were given intraperitoneal injections with vinclozolin (100 mg/kg·day, 99% pure; ChemService, West Chester, Pa.), flutamide (20 mg/kg·day, Sigma, St. Louis, Mo.) or DMSO in sesame oil (vehicle) as controls, while timed pregnant outbred CD-1 mice were given intraperitoneal injections (IP) with vinclozolin doses: 100 mg/kg·day (V1) or 200 mg/kg·day (V2) or DMSO in sesame oil as controls.^21 Mice were given injections from embryonic day (E) E7-E13, with plug date equal to day 0. Controls were injected with vehicle (DMSO) dose and were matched with vinclozolin or flutamide treatment animals within the same mouse strain at the time of injection and were analyzed together throughout all three generations. The number of treated gestating females used were: for mouse 129 strain (3 controls and 4 vinclozolin treated); for mouse 129 strain flutamide 20 mg/kg/day dose (3 controls and 3 flutamide treated); and for mouse CD-1 strain (4 control and 3 vinclozolin treated (100 mg/kg/day (V1), 3 vinclozolin 200 mg/kg/day (V2)). F1 postnatal (P)P90 males and females from different litters of control, vinclozolin and flutamide treatment groups were bred to generate the F2 generation. F2 generation mice were bred to generate the F3 generation. Breedings were carefully monitored to eliminate any sibling or cousin breeding to remove potential phenotypes as a result of inbreeding. Male mice were collected and analyzed between P60-P90 (P90) for all generations and treatment groups. The number of P90 males collected for replicates for the mouse 129 strain vinclozolin treatment group (i.e. n value) were: for F1 (8 control, 11 vinclozolin); for F2 (11 control, 22 vinclozolin); and for F3 (11 control, 11 vinclozolin). […]

[5] = transgenerational F3 generation

| SMILES | testosterone levels [1] | number of DMR [2] | onset of puberty for females ([3]; F2 generation) | onset of puberty in males ([3]; F2 generation) | onset of puberty in females [3, 5] | onset of puberty in males [3, 5] | apoptotic germ cells in the testis [4] | mean percentage of motile epididymal sperm (caudal epididymal sperm) | body weight, testis weight index, or kidney weight index (129 and CD-1 mice; F1-F3) | litter size or male/female sex ratio (129 and CD-1 mice; all generations analyzed) |
| --- | --- | --- | --- | --- | --- | --- | --- | --- | --- | --- |
| Clc1cc2c(cc1Cl)Oc1cc(Cl)c(Cl)cc1O2 [dioxin, 2,3,7,8-tetrachlorodibenzo-p-dioxin] | reduction | 50 | early onset | early onset | early onset; also recorded: advanced | no effect | – | – | – | – |
| CC(C)C(=O)Nc1ccc([N+](=O)[O-])c(C(F)(F)F)c1 [flutamide] | – | – | – | – | – | – | no differences | reduction | no consistent transgenerational differences | no consistent transgenerational effects |
